This note sets out measurements from patent US9309199B2, “Inhibitors of catechol O-methyl transferase and their use in the treatment of psychotic disorders” (Merck Sharp & Dohme Corp., priority 2010, dated 2016).

In general, IC50 refers to the midpoint of a concentration-inhibition curve.

This assay concerns the target T1, MB-COMT (Homo sapiens, UniProt P21964).
T1 construct: 6xHis or 10xHis (C)
T1 sequence (P21964 1-271): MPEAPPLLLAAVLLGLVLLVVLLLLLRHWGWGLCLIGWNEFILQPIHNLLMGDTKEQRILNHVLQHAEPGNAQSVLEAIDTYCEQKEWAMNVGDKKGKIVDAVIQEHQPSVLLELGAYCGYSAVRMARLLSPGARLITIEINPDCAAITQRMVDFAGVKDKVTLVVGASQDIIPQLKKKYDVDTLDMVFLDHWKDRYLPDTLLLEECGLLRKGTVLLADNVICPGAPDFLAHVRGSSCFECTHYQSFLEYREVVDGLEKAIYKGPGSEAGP
Kind of assay: COMT inhibition, esculetin fluorescence or fluorescence polarization assay (MB-COMT). It is filed as biochemical. To be noted: purified human COMT Val158 variant, membrane-bound. The text has this: The activity of the compounds in accordance with the present invention as COMT inhibitors may be readily determined without undue experimentation using a fluorescence or fluorescence polarization (FP) methodology that is well known in the art (Kurkela M et al., Anal Biochem (331) 2004, 198-200 and Graves, T L et al., Anal Biochem (373) 2008, 296-306).
The fluorescence assay was based on methylation of a substrate (6,7-dihydroxycoumarin or ‘esculetin’) by COMT to produce a highly fluorescent product (7-hydroxy-6-methoxycoumarin or scopoletin'). […] A 10 mM compound stock in DMSO was used to prepare 10 point 3-fold dilution series and 1 uL of appropriate dilution was plated into assay wells (black 96 well round bottom polystyrene plates from Costar; catalog #3792). […] The formation of product (scopoletin) was monitored over time by fluorescence (excitation 340 nm, emission 460 nm, no lag, 100 μs integration time, 5 flashes, top read) using a Tecan Safire^2 plate reader.
(Fluorescence polarisation rises when a labelled molecule tumbles more slowly, as on binding a larger partner.)
On to `Cn1cc(-c2ccc3ccccc3c2)cc(O)c1=O` [Compound #1, 3-hydroxy-1-methyl-5-naphthalen-2-ylpyridin-2(1H)-one], for which half-maximal inhibition (IC50) required 179 nM. `O=c1[nH]cc(-c2ccc(Cl)c(C(F)(F)F)c2)cc1O` [Compound #2, 5-[4-chloro-3-(trifluoromethyl)-phenyl]-3-hydroxypyridin-2(1H)-one] displayed an IC50 of 31 nM.

Regarding `N#Cc1cccc(-c2c[nH]c(=O)c(O)c2)c1` [Compound #8, 3-(5-hydroxy-6-oxo-1,6-dihydropyridin-3-yl)benzonitrile], the IC50 came out at 197 nM. This IC50 is about 6.4-fold higher than that of the compound before.

On to `Cn1cc(-c2ccc(Cl)cc2Cl)cc(O)c1=O` [Example 1, 5-(2,4-Dichloro-phenyl)-3-hydroxy-1-methyl-1H-pyridin-2-one], for which the IC50 is 392 nM. Compared with the last compound, the IC50 is about 2-fold higher. For `Cn1cc(-c2cccc(-c3ccccc3)c2)cc(O)c1=O` [Example 4, 5-Biphenyl-3-yl-3-hydroxy-1-methylpyridin-2(1H)-one], the IC50 was 118 nM.
